Values after ≈ are worked out from the molar mass of the structure shown.
How the values were obtained:
[1] = Solubility in FaSSIF, FeSSIF, water and SGF; format: physicochemical; settings: for solubility at 0.5 h / solubility at 2 h / solubility at 24 h: thermodynamic from solid; for Solubility: SGF
Description: Aliquots of the samples are placed in the media FaSSIF buffer, FeSSIF buffer, water and SGF and tested for solubility at 0.5, 2 and 24 hours, respectively.

[2] = Crystal form conversion (heat treatment, suspension competition test, DSC analysis); format: physicochemical
Text: The mutual conversion relationship among the A, B, C, D crystal forms of the sodium salt is further studied in this embodiment by heat treatment under nitrogen protection and suspension competition test.
However, the methods of heating, suspension pulping as well as grinding can not study the thermodynamic conversion relationship between crystal form A and crystal form D. In order to further study the thermodynamic conversion relationship of crystal form A and crystal form D, analyzed from the DSC pattern, the DSC of crystal form A is shown in FIG. 2, and the DSC of crystal form D is shown in FIG. 11, the melting point of crystal form A is higher than that of crystal form D, whereas the enthalpy of melting of crystal form A is much lower than that of crystal form D. It may be judged from the thermodynamic stability relationship table that if TA>TD, ΔHf, A>ΔHf, D, crystal form A and D is a univariate relationship, crystal form A is stable, if TA>TD, ΔHf, A<ΔHf, D, crystal forms A and D are reciprocal relationships, if the temperature is higher than the transcrystallization temperature, crystal form A is stable, and if the temperature is lower than the transcrystallization temperature, crystal form D is stable.

[3] = molecular target: Mcl-1 protein (Homo sapiens, UniProt Q07820); experiment: Affinity test of recombinant Mcl-1 protein (SPR, Biacore); format: binding
Text: The binding affinity of the sodium salt D crystal form of TJ01-013 to the Mcl-1 protein is studied by an in vitro Surface Plasmon Resonance (SPR) test, using a Biacore analyzer and measuring with a CM5 chip being coupled to the protein.

[4] = tested on: HEK293T cells; experiment: Selective induction of autophagy in damaged mitochondria, Keima HEK293 cell model; format: cell-based; settings: 0 μM, 2.5 μM, 5 μM, 10 μM; mitochondria damaged with CCCP; FIG. 42; P=0.0425
Description: In HEK293T cells in vitro, fusing Keima fluorescent protein derived from the coral and the mitochondrial localization sequence of cytochrome C oxidase subunit IV asmtKeima protein, staining the nuclei with Hoechst33342 nuclear dye, and using the ThermoCellInsight™ CX7 LZR High Content Screening (HCS) platform at EX/EM=594 nm/620 nm conditions to assess mitophagy levels. The autophagy level of damaged mitochondria is tested by disrupting the mitochondrial membrane potential using […] Carbonyl cyanide 3-chlorophenylhydrazone (CCCP), causing mitochondrial damage.

[5] = tested on: renal ischemia-reperfusion (I/R) model of SD rats; experiment: Acute kidney injury model caused by unilateral renal ischemia and reperfusion in rats; format: in vivo
Description: The pharmacodynamic effects of the D crystal form of TJ01-013 are studied in a renal ischemia-reperfusion (I/R) model of SD rats. Each group has twelve male rats of 280-300 g. They are administered by gavage once a day for 3 consecutive days. Three dose groups are divided into 3 mg/kg, 10 mg/kg and 30 mg/kg. The sham group and model control group were administered by equal volumes of 0.5% CMC-Na, and left renal artery ligation is performed 1 h after administration on the fourth day, and right nephrectomy is performed after 45 min of ischemia and before reperfusion, and then administered every day until 3 d after administration. The endpoint of the experiment is 3 d after administration.

[6] = tested on: SD rat puromycin aminonucleoside (PAN) model; experiment: PAN-induced renal injury model in rats; format: in vivo, SD rats
Description: The effect of D crystal form of TJ01-013 on renal function is studied in the SD rat puromycin aminonucleoside (PAN) model. Each group has twelve male rats of 160-180 g. On the first day of the experiment, except for the normal control group, rats in the other groups are given a single intraperitoneal injection of 100 mg/kg PAN (aminonucleoside puromycin) to induce the production of proteinuria. After modeling, the rats are randomly divided into the model control group, the three dose groups of 3 mg/kg, 10 mg/kg, and 30 mg/kg of the D crystal form of TJ01-013, and the normal control group. At the same time as intraperitoneal injection of PAN for modeling, the drug is administered by gavage once a day, with a volume of 10 mL/kg, for four consecutive weeks.

[7] = 3 mg/kg, 10 mg/kg, and 30 mg/kg, P<0.05-0.001
[8] = 10 mg/kg and 30 mg/kg, versus model control, P<0.001
[9] = 3, 10, and 30 mg/kg gavage, 7 and 12 d after administration, versus model control

Mcl-1 protein, sequence (Q07820 whole entry, species assumed): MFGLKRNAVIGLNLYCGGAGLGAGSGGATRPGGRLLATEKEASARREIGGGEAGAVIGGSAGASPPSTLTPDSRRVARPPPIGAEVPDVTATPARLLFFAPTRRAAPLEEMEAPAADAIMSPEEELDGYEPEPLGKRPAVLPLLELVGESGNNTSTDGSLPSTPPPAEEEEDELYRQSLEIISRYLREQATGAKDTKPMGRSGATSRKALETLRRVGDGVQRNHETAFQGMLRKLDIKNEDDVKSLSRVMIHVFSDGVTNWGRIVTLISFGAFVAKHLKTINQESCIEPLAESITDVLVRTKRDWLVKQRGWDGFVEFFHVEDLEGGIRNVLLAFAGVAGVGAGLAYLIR

Which solubility at 0.5 h ([1]; FaSSIF buffer, FaSSIF, 0.5 h) does the source give for `O=C(O)C[S+]([O-])c1cc(NS(=O)(=O)c2ccc(Br)cc2)c2ccccc2c1O` (stereo not drawn) [Embodiment 4] here?
Its solubility at 0.5 h is 3300 µg/mL (≈ 6.81 mM).

And the solubility at 2 h ([1]; FaSSIF buffer, FaSSIF, 2 h)?
Its solubility at 2 h is 3270 µg/mL (≈ 6.75 mM).

What about the solubility at 24 h ([1]; FaSSIF buffer, FaSSIF, 24 h) of the same compound?
The solubility at 24 h was 2340 µg/mL (≈ 4.83 mM).

What about the solubility at 0.5 h ([1]; FeSSIF buffer, FeSSIF, 0.5 h) of the same compound?
The solubility at 0.5 h was 1320 µg/mL (≈ 2.73 mM).

What about the solubility at 2 h ([1]; FeSSIF buffer, FeSSIF, 2 h) of the same compound?
Its solubility at 2 h is 1380 µg/mL (≈ 2.85 mM).

What about the solubility at 24 h ([1]; FeSSIF buffer, FeSSIF, 24 h) of the same compound?
Its solubility at 24 h is 1290 µg/mL (≈ 2.66 mM).

What about the “Solubility (in words)” value ([1]; SGF (FIG. 41)) of the same compound?
Its value is “low solubility”.

And the Solubility ([1]; 0.5 h)?
The Solubility was “Not detected”.

What about the Solubility ([1]; 2 h) of the same compound?
Its Solubility is “Not detected”.

What about the Solubility ([1]; 24 h) of the same compound?
Its Solubility is “Not detected”.

What about the solubility at 0.5 h ([1]; Water, 0.5 h) of the same compound?
Its solubility at 0.5 h is 4100 µg/mL (≈ 8.46 mM).

And the solubility at 2 h ([1]; Water, 2 h)?
The solubility at 2 h was 4190 µg/mL (≈ 8.65 mM).

And the solubility at 24 h ([1]; Water, 24 h)?
Its solubility at 24 h is 3870 µg/mL (≈ 7.99 mM).

And the “Solubility (in words)” value ([1]; water, FaSSIF, FeSSIF (FIG. 41))?
Its value is “high solubility”.

And the “Crystal form conversion / relative stability in suspension competition test” value ([2]; equal amounts mixed, RT/50, magnetic stirring ~1000 rpm, about 20 hours, listed as crystal form D)?
Its value is “more stable than crystal form B, C”.

What about the “Thermodynamic stability of crystal form A versus crystal form D” value ([2]; judged from DSC data (Tables 9-10)) of the same compound?
The value was “more stable at lower temperatures”.

What about the Kd ([3]; CM5 chip coupled to the protein, read-out: Affinity constant KD) of the same compound?
Its Kd is 1120 nM.

What about the kon ([3]; CM5 chip, read-out: Binding constant ka) of the same compound?
The kon was 1090 M⁻¹ s⁻¹.

What about the “Remarks (kind of binding)” value ([3]; listed as TJ0113) of the same compound?
Its value is “specific”.

What about the “Remarks (kind of binding)” value ([3]; listed as sodium salt D crystal form of TJ01-013) of the same compound?
The value was “can bind specifically to Mcl-1 protein”.

And the “Induction of autophagy in damaged mitochondria (mitophagy level, mtKeima)” value [4]?
Its value is “selectively induce autophagy in the damaged mitochondria”.

What about the Creatinine clearance rate ([5]; 3 mg/kg, 10 mg/kg and 30 mg/kg, versus model control) of the same compound?
The Creatinine clearance rate was “different degrees of improvement”.

And the “Expression level of inflammatory factor IL-1p in renal tissues” value [5, 7]?
The value was “significantly decreased”.

And the “Expression level of inflammatory factor IL-6 in renal tissues” value [5, 7]?
The value was “significantly decreased”.

And the Urea nitrogen level ([5]; 10 mg/kg and 30 mg/kg, 72 h after ischemia-reperfusion)?
The Urea nitrogen level was “significant trend of decrease”.

And the “Apoptotic cell rate in renal tissue” value [5, 8]?
Its value is “significantly decreased”.

And the “Expression level of apoptotic factor caspase 9 in renal tissues” value [5, 8]?
Its value is “significantly decreased”.

And the Creatinine values ([5]; 10 mg/kg, 24 h, 48 h and 72 h after ischemia-reperfusion, versus model control, P<0.05-0.01)?
Its Creatinine values is “significantly decreased”.

And the “Degree of renal lesions (tubular dilatation, necrosis, glomerular atrophy, inflammatory cell infiltration etc.)” value ([5]; 10 mg/kg, versus model control)?
Its value is “significantly reduced”.

What about the Creatinine clearance rate ([5]; 10 mg/kg, versus model control, P<0.05) of the same compound?
Its Creatinine clearance rate is “statistically significant”.

What about the Creatinine values ([5]; 30 mg/kg, 24 h and 72 h after reperfusion, P<0.05) of the same compound?
Its Creatinine values is “significantly decreased”.

What about the “Degree of renal lesions (tubular dilatation, necrosis, glomerular atrophy, inflammatory cell infiltration etc.)” value ([5]; 30 mg/kg, versus model control) of the same compound?
Its value is “tendency to reduce the above lesions”.

What about the “Effect on body weight” value ([5]; 3, 10, and 30 mg/kg gavage, 72 h after reperfusion, versus model control) of the same compound?
Its value is “no significant effect”.

What about the “Amount of the 24 h urine protein” value [6, 9] of the same compound?
Its value is “different degrees of reduction”.

And the Urine protein concentration [6, 9]?
Its Urine protein concentration is “different degrees of reduction”.

And the “Amount of the 24 h urine protein” value ([6]; 3, 10, and 30 mg/kg, 12 d after administration)?
The value was “certain trend of reduction”.

What about the Blood albumin ([6]; 3, 10 and 30 mg/kg, 7 d and 12 d after administration, versus model control) of the same compound?
The Blood albumin was “different degrees of increase”.

What about the “Therapeutic effect on PAN-induced renal injury” value ([6]; gavage 3, 10, 30 mg/kg) of the same compound?
Its value is “significant therapeutic effect”.

And the “Degree of renal lesions, pathologic microscopy” value ([6]; low, medium and high dose groups)?
The value was “reduce the degree of lesions”.
